How the values were obtained:
Assay type in all cases: physicochemical
[1] = Binding of treprostinil diethanolamine to the 0.45-μm PTFE filters used in the assay
Description: A UV absorbance measurement was conducted with an approximate 0.1 mg/mL treprostinil diolamine solution with a Fluostar Omega BMG Labtech UV spectrophotometer from 220 nm to 350 nm to determine the λmax. Two standard curves were established with known concentrations of treprostinil at 228 nm and 270 nm. The time to achieve equilibrium between bound and unbound treprostinil to the IER was determined. One gram of resin was added to 100 mL of 10 mg/mL treprostinil solution. The suspension was stirred for four hours and 1 -mL samples were taken at 30, 60, 90, 120, 180, and 240 minutes. Each sample was filtered through a 0.45-μm PTFE filter, and the resulting solution was assayed by UV spectrophotometry for treprostinil concentration. Complexation experiments were conducted with known concentrations of treprostinil and one gram of resin at ratios of 1:0.5, 1:1, 1:2, and 1:4, resin:treprostinil (w/w). Two resins, PUROLITE™ and DUOLITE™, were evaluated separately. The amount of treprostinil complexed per gram of resin was calculated based on the difference between the initial and final treprostinil concentration. The percent loading efficiency was calculated based on the equation: (1-[unbound treprostinil]/[initial treprostinil]) * 100. […]
(§1) Treprostinil diethanolamine was determined to be stable for 14 days at both ambient and refrigerated environments.

[2] = Complexation of treprostinil with cholestyramine ion-exchange resins (PUROLITE, DUOLITE); unbound drug assayed by UV at 270 nm
Description: A UV absorbance measurement was conducted with an approximate 0.1 mg/mL treprostinil diolamine solution with a Fluostar Omega BMG Labtech UV spectrophotometer from 220 nm to 350 nm to determine the λmax. Two standard curves were established with known concentrations of treprostinil at 228 nm and 270 nm. The time to achieve equilibrium between bound and unbound treprostinil to the IER was determined. One gram of resin was added to 100 mL of 10 mg/mL treprostinil solution. The suspension was stirred for four hours and 1 -mL samples were taken at 30, 60, 90, 120, 180, and 240 minutes. Each sample was filtered through a 0.45-μm PTFE filter, and the resulting solution was assayed by UV spectrophotometry for treprostinil concentration. Complexation experiments were conducted with known concentrations of treprostinil and one gram of resin at ratios of 1:0.5, 1:1, 1:2, and 1:4, resin:treprostinil (w/w). Two resins, PUROLITE™ and DUOLITE™, were evaluated separately. The amount of treprostinil complexed per gram of resin was calculated based on the difference between the initial and final treprostinil concentration. The percent loading efficiency was calculated based on the equation: (1-[unbound treprostinil]/[initial treprostinil]) * 100. Photographs were taken for each resin before and after complexation with treprostinil using a Leica DM IL LED light microscope and Leica DMC2900 microscope camera.
FIGS. 1-6 present the results of experiments. […] FIGS. 2A and 2B show calibration curves for determining a concentration of unbound treprostinil (diethanolamine) based on treprostinil absorbance at 228 nm (2A) and 270 nm (2B). The 270 nm curve was used to calculate all the concentrations in the complexation experiments.

[3] = Stability of treprostinil diethanolamine at ambient and refrigerated environments; conditions: 14 days
Description: as §1

| SMILES | binding effect with PTFE filters [1] | loading efficiency (drug bound to the resin) ([2]; lower concentrations of treprostinil diethanolamine) | stability ([3]; ambient environment) | stability ([3]; refrigerated environment) | maximum amount of treprostinil bound ([2]; plateau with increasing concentration of treprostinil diethanolamine, resin:treprostinil ratios 1:0.5 to 1:4 (w/w)) [g/g resin] | time to equilibrium between bound and unbound treprostinil to the resins ([2]; stirring, 1 g resin in 100 mL of 10 mg/mL treprostinil solution) |
| --- | --- | --- | --- | --- | --- | --- |
| CCCCC[C@H](O)CC[C@@H]1[C@H]2Cc3cccc(OCC(=O)O)c3C[C@H]2C[C@H]1O.OCCNCCO [Treprostinil diethanolamine] | no binding effect | almost all drug was bound to the resin | stable | stable | – | – |
| CCCCC[C@H](O)CC[C@@H]1[C@H]2Cc3cccc(OCC(=O)O)c3C[C@H]2C[C@H]1O [treprostinil] | – | – | – | – | 1.6 | After one hour of stirring |
